Assay results as given in PMC6278284, “Synthesis of Jacaranone-Derived Nitrogenous Cyclohexadienones and Their Antiproliferative and Antiprotozoal Activities” (Molecules, 2018).

Experiments:
[1] = test system: HCT-116 colon cancer cells; experiment: XTT viability assay, HCT-116; assay type: cell-based; conditions: Homo sapiens, 72 h, read-out: metabolic active cells in % of control; for viability at 5 µg/mL: HCT 116, 5 µg/mL; for viability at 50 µg/mL: HCT 116, 50 µg/mL
Procedure: Human CCRF-CEM leukemia and MDA-MB-231 breast cancer cells lines were kept in RPMI1640 medium (Gibco®, ThermoFisher Scientific Inc., New York, NY, USA), supplemented with 2 mM L-glutamine (Gibco®), 10% heat-inactivated foetal bovine serum (FBS, Gibco®), 100 units/mL Penicillin (PAA), and 100 µg/mL Streptomycin (Gibco®) (1% Pen/Strep). HCT-116 and U251 cells were cultured in high-glucose Dulbecco’s Modified Eagle Medium (DMEM, Gibco®) containing 2 mM L-glutamine, 10% FBS, and 1% Pen/Strep. MRC-5 cells were grown in Minimum Essential Medium (MEM, Gibco®) supplemented with 2 mM L-glutamine, 10% FBS, and 1% Pen/Strep. All cells were kept in a humidified 5% CO2 atmosphere at 37 °C and passaged at 90% confluence.
A Cell Proliferation Kit II (XTT) was purchased from Sigma-Aldrich and performed as described previously and in accordance with the manufacturer’s protocol. In brief, adherent cell lines were seeded at a density of 50,000 cells/mL or 100,000 cells/mL (MRC-5) in 96 well plates (100 µL, flat bottom) and grown for 24 h before test compounds were added. Suspension cells (CCRF-CEM) were seeded at 100,000 cells/mL and test compounds were added immediately. After 72 h, XTT solution was added for another 90 min or 4 h (CCRF-CEM cells) and absorbance was measured at 490 nm with a reference wave length of 650 nm (Hidex Sense Microplate Reader 425-301, Hidex, Turku, Finland). Results are expressed as a percentage of the vehicle-treated (0.5% DMSO) control cells. Vinblastine served as the positive control (0.01 µg/mL).

[2] = test system: human (cancer) cell lines (CCRF-CEM, MDA-MB-231, HCT-116, U251, MRC-5); experiment: XTT viability assay, statements on the whole panel of cell lines; assay type: cell-based; conditions: 72 h; for overall cytotoxicity (in words): 50 µg/mL, panel of cell lines; for metabolic activity, % of the control: in all (13i) or almost all (13b) cell lines
Procedure: All synthesized dienones (13a–j, 14a, 14c, and 15) were evaluated for their cytotoxic activity against human (cancer) cell lines. To cover a range of different tumor entities, we used a panel of cancer cell lines (CCRF-CEM leukemia, MDA-MB-231 breast cancer, HCT-116 colon cancer, and U251 glioblastoma cells) as well as a non-tumorigenic human cell line (MRC-5 lung fibroblasts). All derivatives were screened for their cytotoxicity at 5 µg/mL and 50 µg/mL to cover a broad concentration range. Cells were exposed to the derivatives for 72 h. […] No clear correlation between cytotoxic and antiprotozoal effects could be drawn. […] Human CCRF-CEM leukemia and MDA-MB-231 breast cancer cells lines were kept in RPMI1640 medium (Gibco®, ThermoFisher Scientific Inc., New York, NY, USA), supplemented with 2 mM L-glutamine (Gibco®), 10% heat-inactivated foetal bovine serum (FBS, Gibco®), 100 units/mL Penicillin (PAA), and 100 µg/mL Streptomycin (Gibco®) (1% Pen/Strep). HCT-116 and U251 cells were cultured in high-glucose Dulbecco’s Modified Eagle Medium (DMEM, Gibco®) containing 2 mM L-glutamine, 10% FBS, and 1% Pen/Strep. MRC-5 cells were grown in Minimum Essential Medium (MEM, Gibco®) supplemented with 2 mM L-glutamine, 10% FBS, and 1% Pen/Strep. All cells were kept in a humidified 5% CO2 atmosphere at 37 °C and passaged at 90% confluence. A Cell Proliferation Kit II (XTT) was purchased from Sigma-Aldrich and performed as described previously and in accordance with the manufacturer’s protocol. In brief, adherent cell lines were seeded at a density of 50,000 cells/mL or 100,000 cells/mL (MRC-5) in 96 well plates (100 µL, flat bottom) and grown for 24 h before test compounds were added. Suspension cells (CCRF-CEM) were seeded at 100,000 cells/mL and test compounds were added immediately. After 72 h, XTT solution was added for another 90 min or 4 h (CCRF-CEM cells) and absorbance was measured at 490 nm with a reference wave length of 650 nm (Hidex Sense Microplate Reader 425-301, Hidex, Turku, Finland). Results are expressed as a percentage of the vehicle-treated (0.5% DMSO) control cells. Vinblastine served as the positive control (0.01 µg/mL).

| Compound | viability at 5 µg/mL [1] [%] | viability at 50 µg/mL [1] [%] | overall cytotoxicity (in words) [2] | metabolic activity, % of the control ([2]; 5 µg/mL) | cytotoxicity against most cell lines (in words) ([2]; 5 µg/mL) |
| --- | --- | --- | --- | --- | --- |
| O=C1C=CC(O)(CCN2C(=O)c3cccnc3C2=O)C=C1 [Compound 13f, N-[2-(1-Hydroxy-4-oxocyclohexa-2,5-dien-1-yl)ethyl]pyridine-2,3-dicarboximide] | 91 | 92.8 | negligible | – | – |
| O=C1C=CC(O)(CCN2C(=O)C=CC2=O)C=C1 [Compound 13b, N-[2-(1-Hydroxy-4-oxocyclohexa-2,5-dien-1-yl)ethyl]maleimide] | 0.13 | -0.32 | – | below 40 % of the control | – |
| O=C1C=CC(O)(CCN2C(=O)C3CC=CCC3C2=O)C=C1 (stereo not drawn) [Compound 13j, N-[2-(1-Hydroxy-4-oxocyclohexa-2,5-dien-1-yl)ethyl]-1,2,3,6-tetrahydrophthalimide] | 98.6 | 63.3 | negligible | – | – |
| O=C1C=CC(O)(CCN2CCOCC2)C=C1 [Compound 14c, N-[2-(1-Hydroxy-4-oxocyclohexa-2,5-dien-1-yl)ethyl]morpholine] | 87.7 | 1.58 | – | – | only minor cytotoxicity |
| O=C1C=CC(O)(CCN2C(=O)COCC2=O)C=C1 [Compound 13g, N-[2-(1-Hydroxy-4-oxocyclohexa-2,5-dien-1-yl)ethyl]morpholine-3,5-dione] | 96 | 68.1 | negligible | – | – |
| O=C1C=CC(O)(CCN2C(=O)C3=C(CCCC3)C2=O)C=C1 [Compound 13i, N-[2-(1-Hydroxy-4-oxocyclohexa-2,5-dien-1-yl)ethyl]-3,4,5,6-tetrahydrophthalimide] | 1.04 | 0.15 | – | below 40 % of the control | – |
| O=C1C=CC(O)(CCN2Cc3ccccc3C2)C=C1 [Compound 14a, N-[2-(1-Hydroxy-4-oxocyclohexa-2,5-dien-1-yl)ethyl]isoindoline] | 97.3 | 62.1 | negligible | – | – |
